The record followed here is ChEMBL document CHEMBL1150983, “Synthesis of novel taxol analogs and evaluation of their biological activities” (1997).

SMILES strings stand for the structures.

The subject of the assay is J774.2. Description: Cytotoxicity tested against J774.2 cells. It is filed as functional. The conditions noted are these: Mus musculus, read-out: ED50 (the source's name).
In the case of `CC(=O)O[C@@]12CO[C@@H]1C[C@@H](O)[C@@]1(C)C(=O)c3[se]cc4c3[C@@](C(C)(C)O)(C[C@@H]4OC(=O)[C@H](O)[C@@H](NC(=O)c3ccccc3)c3ccccc3)[C@@H](OC(=O)c3ccccc3)[C@H]21`, the EC50 came to 900 nM.

For `CC(=O)O[C@H]1C(=O)[C@@]2(C)[C@H]([C@H](OC(=O)c3ccccc3)[C@]3(O)C[C@H](OC(=O)[C@H](O)[C@@H](NC(=O)c4ccccc4)c4ccccc4)C(C)=C1C3(C)C)[C@]1(OC(C)=O)CO[C@@H]1[C@@H]2O`, the EC50 is 250 nM.

Regarding `CC(=O)O[C@H]1C(=O)[C@@]2(C)[C@H]([C@H](OC(=O)c3ccccc3)[C@]3(O)C[C@H](OC(=O)[C@H](O)[C@@H](NC(=O)c4ccccc4)c4ccccc4)C(C)=C1C3(C)C)[C@]1(OC(C)=O)CO[C@@H]1C[C@@H]2O` [PACLITAXEL], the EC50 stood at 16 nM.
